From patent US6365187B2, “Bioadhesive microspheres and their use as drug delivery and imaging systems” (priority 1992, dated 2002)

Settings: rat, in vivo
Description: The animals were then housed in metabolic cages and the feces were collected every three hours for a period of four days. At given time intervals, the rats were X-rayed, and the distribution of the microspheres in the stomach and in the intestine was followed. The collected feces were also X-rayed in order to monitor the total transit time of the microspheres through the GI tract.
Tests were conducted in areas of distinct pH and physiology: the stomach (low pH range), and the intestine (basic environment, pH ranging from 5-7, in the proximal to distal regions, respectively), FIGS. 6a, 6b, and 6c.

alginate
retention time in the intestine, ranking: longest retention time from the group of hydrogels
